From patent US12239711B2, “Cereblon ligands and bifunctional compounds comprising the same” (Arvinas Operations, Inc., priority 2014, dated 2025)

How the values were obtained:
[1] = tested on: estrogen responsive element/promoter/luciferase reporter gene; test: ERE Luciferase Assay in T47D-KBluc cells; assay type: cell-based, human; conditions: Homo sapiens, 24 hours, luciferase activity, read-out: Target Engagement IC50
Procedure: 1. ERE Luciferase Assay for Compounds in Table 5.
T47D-KBluc cells (ATCC® #CRL_2865, T47D human breast cancer cells stably transfected with estrogen responsive element/promoter/luciferase reporter gene) were seeded into 96-well white opaque plates in RPMI growth medium supplemented with 10% fetal bovine serum (FBS) and allowed to adhere overnight in a 37° C. humidified incubator. The following day, cells were treated with PROTACs in a 12-point concentration curve (top final concentration of 300 nM with subsequent concentrations being 3-fold less with 2 pM being the lowest concentration in the assay). Each PROTAC was tested independently in two experiments on 96-well plates. After 24 hours, media was removed and lysis buffer was added to the wells. Following lysis, Bright-Glo™ Luciferase Assay Substrate (Promega, Madison WI) was added and the luciferase activity was measured using a Cytation 3 plate reader (BioTek™, Winooski, VT). Each compound was assayed in duplicate and the activity was calculated as IC50 using GraphPad Prism software (San Diego, CA).

[2] = target: T1, Estrogen Receptor-Alpha (ERα) (Homo sapiens, UniProt P03372); test: Estrogen Receptor-Alpha (ERα) degradation assay in MCF-7 cells (western blot / In-Cell Western); assay type: cell-based; conditions: for Dmax: MCF7, read-out: ER Dmax; for DC50: read-out: ER DC50
T1 construct: endogenous in cells; host or cells: MCF-7 (MCF7) cells
T1 sequence (P03372 1-595): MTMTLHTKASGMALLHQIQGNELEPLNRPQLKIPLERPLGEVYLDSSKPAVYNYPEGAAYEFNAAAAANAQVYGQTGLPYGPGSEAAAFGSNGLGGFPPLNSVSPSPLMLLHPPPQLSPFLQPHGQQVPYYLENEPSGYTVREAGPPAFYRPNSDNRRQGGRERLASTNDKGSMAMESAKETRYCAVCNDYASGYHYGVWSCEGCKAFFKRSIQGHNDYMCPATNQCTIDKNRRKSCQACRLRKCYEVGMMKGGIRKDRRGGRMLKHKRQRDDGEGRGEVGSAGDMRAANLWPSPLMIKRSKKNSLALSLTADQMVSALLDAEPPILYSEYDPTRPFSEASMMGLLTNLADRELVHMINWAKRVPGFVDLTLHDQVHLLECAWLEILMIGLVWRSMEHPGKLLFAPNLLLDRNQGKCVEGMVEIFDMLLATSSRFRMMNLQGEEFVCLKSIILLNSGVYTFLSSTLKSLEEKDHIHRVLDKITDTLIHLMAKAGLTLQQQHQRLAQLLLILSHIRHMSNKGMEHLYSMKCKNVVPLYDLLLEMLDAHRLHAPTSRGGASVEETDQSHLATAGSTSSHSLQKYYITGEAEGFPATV
Procedure: 2. Estrogen Receptor-Alpha (ERα) Degradation Assay in MCF-7 Cells Using Western Blot Method for Table 5.
The exemplary novel ERα degraders were assessed for their activity in degrading ERα in MCF-7 cells via western blot. The assay was carried out in the presence of 10% FBS or high percentage of human or mouse serum. Protocols of the western blot assay are described below.
MCF7 cells were grown in DMEM/F12 with 10% FBS and seeded at 24,000 cells per well in 100 μl into 96-well clear tissue culture plates. The following day, the cells were treated with PROTACs in a […] concentration curve with 100 nM being the top concentration and serial dilutions to make the other concentrations (30 nM, 10 nM, 3 nM, 1 nM, and 0.3 nM). At all concentrations, 0.01% DMSO is the final concentration in the well. The following day, the plates are aspirated, washed with 50 μl of cold PBS. The cells are lysed with 50 μl/well 4° C. Cell Lysis Buffer (Catalog #9803; Cell Signaling Technology, Danvers, MA) (20 mM Tris-HCL (pH 7.5), 150 mM NaCl, 1 mM Na2EDTA, 1 mM EGTA, 1% Triton, 2.5 mM sodium pyrophosphate, 1 mM B-glycerophosphate, 1 mM sodium vanadate, 1 ug/ml leupeptin). Lysates were clarified at 16,000×g for 10 minutes, and 2 μg of protein was subjected to SDS-PAGE analysis and followed by immunoblotting according to standard protocols. The antibodies used were ERα (Cell Signaling Technologies Catalog #8644), and Tubulin (Sigma Catalog #T9026; St. Louis, MO). Detection reagents were Clarity Western ECL substrate (Bio-Rad Catalog #170-5060; Hercules, CA).
Alternatively, MCF7 cells were grown in DMEM/F12 with 10% FBS and seeded at 24,000 cells per well in 500 μl in 24-well clear tissue culture plates. The following day, the cells were treated with PROTACs in a 5-point concentration curve (100 nM, 33 nM, 11 nM, 3.7 nM, and 1.2 nM) in the presence of 0.01% DMSO. After 72 hours, the wells are aspirated and washed with 500 μl of PBS. The cells are lysed with 100 μl/well 4° C. Cell Lysis Buffer (Catalog #9803; Cell Signaling Technology, Danvers, MA) (20 mM Tris-HCL (pH 7.5), 150 mM NaCl, 1 mM Na2EDTA, 1 mM EGTA, 1% Triton, 2.5 mM sodium pyrophosphate, 1 mM B-glycerophosphate, 1 mM sodium vanadate, 1 ug/ml leupeptin). Lysates were clarified at 16,000×g for 10 minutes, and 2 μg of protein was subjected to SDS-PAGE analysis and followed by immunoblotting according to standard protocols. The antibodies used were ERα (Cell Signaling Technologies Catalog #8644), and Tubulin (Sigma Catalog #T9026; St. Louis, MO). Detection reagents were Clarity Western ECL substrate (Bio-Rad Catalog #170-5060; Hercules, CA).
3. Estrogen Receptor-Alpha (ERα) Degradation Assay Using In-Cell Western™ Assay for Table 5.
Degradation of ERα by claimed compounds were determined in MCF7 cells using an In-Cell Western™ assay. Briefly, MCF7 cells were plated in 96-well plates (2000 cells per well in 100 μl media) and incubated at 37° C. under an atmosphere of 5% CO2 in a humidified incubator overnight. One-hundred (100) μl of media containing test compound (at 2× concentration) was added to the appropriate wells to provide 11 serially decreasing concentrations (top final concentration, 1 μM then 3-fold less for the next 10 concentrations); a vehicle control (DMSO) was also added for each compound. For each experiment, all compounds were assayed in duplicate plates. Cells were then incubated for 3 or 5 days in the above-mentioned environment. The assay was terminated by removal of media, a single wash with ice-cold PBS and the addition of 50 μl paraformaldehyde (PFA: 4% in PBS). After 15 minutes in PFA at room temperature, the cells were permeabilized in Tris-phosphate-buffered saline with Tween (0.1%) (TBST) supplemented with Triton X-100 (0.5%) for 15 minutes. Cells were then blocked in BSA (TBST with BSA, 3%) for one hour. […]

Row | Structure (SMILES) | IC50 [1] | Dmax [2] | DC50 [2]
1 | COc1cc(N2CCN(CCCCCOc3ccc([C@H]4c5ccc(O)cc5CC[C@H]4c4ccccc4)cc3)CC2)cc2c1C(=O)N(C1CCC(=O)NC1=O)C2 (stereo partly drawn) [compound 1, 3-{5-[4-(5-{4-[(1S,2R)-6-hydroxy-2-phenyl-1,2,3,4-tetrahydronaphthalen-1-yl]phenoxy}pentyl)piperazin-1-yl]-7-methoxy-1-oxo-2,3-dihydro-1H-isoindol-2-yl}piperidine-2,6-dione] | 58.2 nM | 50 to 75% | 10 to 100 nM
2 | COc1cc(N2CCN(CCCCCOc3ccc([C@@H]4c5ccc(O)cc5CC[C@@H]4c4ccccc4)cc3)CC2)cc2c1C(=O)N(C1CCC(=O)NC1=O)C2 (stereo partly drawn) [compound 2, 3-(5-(4-(5-(4-((1R,2S)-6-hydroxy-2-phenyl-1,2,3,4-tetrahydronaphthalen-1-yl)phenoxy)pentyl)piperazin-1-yl)-7-methoxy-1-oxoisoindolin-2-yl)piperidine-2,6-dione] | 0.79 nM | ≥ 75% | 1 to 10 nM
3 | COCCOCCOc1c(CCN2CCCN(CCCCOc3ccc([C@H]4c5ccc(O)cc5CC[C@H]4c4ccccc4)cc3)CC2)ccc2c1CN([C@H]1CCC(=O)NC1=O)C2=O [compound 7, (3S)-3-(5-{2-[4-(4-{4-[(1S,2R)-6-hydroxy-2-phenyl-1,2,3,4-tetrahydronaphthalen-1-yl]phenoxy}butyl)-1,4-diazepan-1-yl]ethyl}-4-[2-(2-methoxyethoxy)ethoxy]-1-oxo-2,3-dihydro-1H-isoindol-2-yl)piperidine-2,6-dione] | 102 nM | 50 to 75% | ≥ 100 nM
4 | COCCOCCOc1c(CCN2CCCN(CCCCOc3ccc([C@@H]4c5ccc(O)cc5CC[C@@H]4c4ccccc4)cc3)CC2)ccc2c1CN([C@H]1CCC(=O)NC1=O)C2=O [compound 8, (3S)-3-[5-[2-[4-(4-[4-[(1R,2S)-6-hydroxy-2-phenyl-tetralin-1-yl]phenoxy]butyl]-1,4-diazepan-1-yl]ethyl]-4-[2-(2-methoxyethoxy)ethoxy]-1-oxo-isoindolin-2-yl]piperidine-2,6-dione] | 0.34 nM | 50 to 75% | 1 to 10 nM
5 | COc1cc(N2CCN(CCC3CCN(c4ccc([C@H]5c6ccc(O)cc6CC[C@H]5c5ccccc5)cc4)CC3)CC2)cc2c1C(=O)N(C1CCC(=O)NC1=O)C2 (stereo partly drawn) [compound 9, 3-(5-{4-[2-(1-{4-[(1S,2R)-6-hydroxy-2-phenyl-1,2,3,4-tetrahydronaphthalen-1-yl]phenyl}piperidin-4-yl)ethyl]piperazin-1-yl}-7-methoxy-1-oxo-2,3-dihydro-1H-isoindol-2-yl)piperidine-2,6-dione] | > 300 nM | 50 to 75% | ≥ 100 nM

Continued, values first:

Row | IC50 [1] | Dmax [2] | DC50 [2] | Structure (SMILES)
6 | 1.35 nM | ≥ 75% | < 1 nM | COc1c(N2CCN(CCCCCOc3ccc([C@@H]4c5ccc(O)cc5CC[C@@H]4c4ccccc4)cc3)CC2)ccc2c1CN(C1CCC(=O)NC1=O)C2=O (stereo partly drawn) [compound 3, 3-[5-[4-[5-[4-[(1R,2S)-6-hydroxy-2-phenyl-tetralin-1-yl]phenoxy]pentyl]piperazin-1-yl]-4-methoxy-1-oxo-isoindolin-2-yl]piperidine-2,6-dione]
7 | 1.42 nM | ≥ 75% | < 1 nM | COCCOCCOc1c(N2CCN(CCCCCOc3ccc([C@@H]4c5ccc(O)cc5CC[C@@H]4c4ccccc4)cc3)CC2)ccc2c1CN(C1CCC(=O)NC1=O)C2=O (stereo partly drawn) [compound 4, 3-[5-[4-[5-[4-[(1R,2S)-6-hydroxy-2-phenyl-tetralin-1-yl]phenoxy]pentyl]piperazin-1-yl]-4-[2-(2-methoxyethoxy)ethoxy]-1-oxo-isoindolin-2-yl]piperidine-2,6-dione]
8 | > 300 nM | < 50% | – | COCCOCCOc1c(N2CCN(CC3CCN(c4ccc([C@H]5c6ccc(O)cc6CC[C@H]5c5ccccc5)cc4)CC3)CC2)ccc2c1CN(C1CCC(=O)NC1=O)C2=O (stereo partly drawn) [compound 5, 3-(5-{4-[(l-{4-[(1S,2R)-6-hydroxy-2-phenyl-1,2,3,4-tetrahydronaphthalen-1-yl]phenyl}piperidin-4-yl)methyl]piperazin-1-yl}-4-[2-(2-methoxyethoxy)ethoxy]-1-oxo-2,3-dihydro-1H-isoindol-2-yl)piperidine-2,6-dione]
9 | 2.18 nM | < 50% | – | COCCOCCOc1c(N2CCN(CC3CCN(c4ccc([C@@H]5c6ccc(O)cc6CC[C@@H]5c5ccccc5)cc4)CC3)CC2)ccc2c1CN(C1CCC(=O)NC1=O)C2=O (stereo partly drawn) [compound 6, 3-(5-{4-[(1-{4-[(1R,2S)-6-hydroxy-2-phenyl-1,2,3,4-tetrahydronaphthalen-l-yl]phenyl}piperidin-4-yl)methyl]piperazin-1-yl}-4-[2-(2-methoxyethoxy)ethoxy]-1-oxo-2,3-dihydro-1H-isoindol-2-yl)piperidine-2,6-dione]
10 | 0.86 nM | ≥ 75% | 1 to 10 nM | COc1cc(N2CCN(CCC3CCN(c4ccc([C@@H]5c6ccc(O)cc6CC[C@@H]5c5ccccc5)cc4)CC3)CC2)cc2c1C(=O)N(C1CCC(=O)NC1=O)C2 (stereo partly drawn) [compound 10, 3-[5-[4-[2-[1-[4-[(1R,2S)-6-hydroxy-2-phenyl-tetralin-1-yl]phenyl]-4-piperidyl]ethyl]piperazin-1-yl]-7-methoxy-1-oxo-isoindolin-2-yl]piperidine-2,6-dione]
11 | – | < 50% | – | COc1cc(N2CCN(CC3CCN(c4ccc([C@H]5c6ccc(O)cc6CC[C@H]5c5ccccc5)cc4)CC3)CC2)cc2c1C(=O)N(C1CCC(=O)NC1=O)C2 (some centres unmarked) [compound 31]
